Source: patent US8552035B2, “Phenanthrenone compounds, compositions and methods” (Pfizer Inc., priority 2008, dated 2013)

Assays:
IFNγ = assay: LPS-induced human whole blood, IFNγ release; format: cell-based
Protocol: (§1) Venous blood from human donors was collected as 10 ml aliquots in tubes containing sodium heparin (BD Vacutainer from Becton Dickinson and Company, Franklin Lakes, N.Y.). Blood was added to sterile polystyrene round bottom 96-well tissue culture plates (Corning Costar) at 180 Blood was placed in a humidified 37 C incubator with 5% CO2 while compounds were prepared (nearly 60 minutes).
(§2) Compounds were prepared from 10 mM stock solutions in dimethylsulfoxide (DMSO, Sigma-Aldrich). Stock compound was diluted in DMSO to give appropriate starting concentration then diluted serially 1/3 in DMSO (i.e. 15 μl compound+30 μl DMSO), followed by diluting each serial dilution 1/167 into vehicle solution (2% DMSO in phosphate buffered saline (Dulbecco's Phosphate Buffered Saline without calcium chloride without magnesium chloride, Invitrogen Corporation, Carlsbad Calif.)). Compound or vehicle was added to blood in 10 μl aliquots as triplicates, omitting the outside wells to minimize possible edge effects. The final highest concentration of each compound in the assay ranged from 3 to 0.3 μM. Final DMSO concentration in the assay was 0.1%. The plate containing the samples was gently vortexed to mix and replaced in the incubator. LPS stock (E. coli serotype 0111:B4, Sigma-Aldrich), stored in aliquots of 100 μg/ml in RPMI at −20° C., was diluted […] in RPMI to make a working stock solution. After 60 minutes of incubation, 10 μl of the prepared LPS working stock was added to the blood to a final concentration of 100 ng/ml. Wells to be used as negative control received RPMI media with no LPS. The plate was again gently vortexed and the plates incubated overnight for 22 hours. Following incubation, the blood was centrifuged at 1500×g for 5 minutes and the plasma removed to either freeze at −20° C. or assay for cytokine release.
(§3) IL-1β, IFNγ and TNFα protein levels were measured using Meso Scale assay kits (Meso Scale Discovery, Gaithersburg, Md., U.S.A.). Reagents were allowed to come to room temperature. Meso Scale plates were blocked with 150 μl of Meso Scale Block B diluent, gently shaking at room temperature for 60 minutes. Plates were washed 3× with wash buffer (PBS, Invitrogen Corporation, with 0.05% Tween-20, Sigma-Aldrich). Calibrators for standard curves were prepared in human plasma/serum assay diluent as a 1/5 serial dilution to achieve final concentrations ranging from 50000 pg/ml to 3.2 pg/ml. Samples were added at 10 to 20 μl/well and calibrators were added at 20 μl/well then incubated at room temperature with gentle shaking for 2 hours. Plates were again washed 3× with wash buffer. Detection antibody was diluted in human plasma/serum antibody diluent to 1 μg/ml and added to the plate at 20 μl/well. Plates were incubated as before for 2 hours and washed again. Read Buffer T (4×) was diluted 1:1 with mqH20 to 2× concentration and 150 μl added to each well. Plates were read on the SECTOR Imager 6000 (Meso Scale Discovery) to generate raw signal values.
(§4) Individual sample signal values were compared to positive and negative controls (vehicle treated blood with LPS and vehicle treated blood without LPS, respectively) to generate % inhibition. Triplicate values were averaged for each donor. The values for three or four donors were averaged and graphed using 4-parameter fit curves in the LabStats plug-in for the Microsoft Excel application.

serum insulin = assay: 28-day mouse side-effect model, serum insulin; format: in vivo; conditions: oral gavage 28 days
Protocol: 10-12 week old female Swiss Webster mice (Taconic, Germantown, N.Y., U.S.A.) weighing 27-29 grams are used in accordance with the guidelines of the Institutional Animal Care and Use Committee and in accordance with NIH guidelines on laboratory animal welfare. Mice are acclimated to the Pfizer animal facility for 3-7 days prior to being placed on study. Prednisolone and DAGR compounds are administered by oral gavage for a total of 28 days. Each treatment group generally contains 8-10 mice. To establish a dosing regimen for the studies, a pilot pharmacodynamic time course experiment is conducted to quantify TNFa repression after a single ED80 dose (determined from the acute LPS endotoxemia mouse model). […] DAGR compounds vary in their required frequency of doses.
Body weights are measured on the first and last day of each experiment. Blood samples are obtained after ˜3 weeks of dosing for steady-state pharmacokinetic analysis. To assess compound effects on LPS-induced TNF-a, all mice receive an intraperitoneal injection of LPS (Salmonella Typhosa, Sigma, St. Louis, L-7895) 2.5 hr after the last dose on day 28. Mice are sacrificed 90 min. after LPS administration. Serum samples are assayed for osteocalcin and TNFa using the Linco multiplex assay (St. Charles, Mo.) and Luminex 100 (Austin, Tex.). Samples are diluted 1:20 and the assay is run according to manufacturer's instructions. An osteocalcin standard is purchased separately from Biomedical Technologies Incorporated (Stoughton, Mass.). Serum insulin is measured to assess compound effects on insulin resistance. Insulin was measured using the UltraSensitive Mouse EIA kit from Alpco Diagnostics (Salem, N.H.) following the manufacturer's protocol.
ED50 and ED80 values are obtained for the various parameters using four-parameter logistic fits of data. For each experiment/dose group, outliers are detected by calculating the number of standard deviations each mouse's value was from the mean of their group and then dividing by the standard deviation of the group. The means and standard deviations used in this calculation omitted the value being examined so that, if it were an outlier, it would have no influence. If the value being examined is more than 2.5 standard deviations from the mean, it was not used in the rest of the calculations.
Percent inhibition values are then calculated for each animal using the means of the vehicle and 10 mpk prednisone control groups. The individual mouse percent inhibition values are then fit to a four-parameter logistic model using the area under curve mean for each group. Since all four parameters are estimated and the lower plateau is not fixed at 0% and the upper plateau was not fixed at 100%, the ED50 and ED80 values are calculated by using an inverse calibration formula for a response equal to 50% or 80%. The designation “nd” means not determined.

TNFα = assay: LPS-induced human whole blood, TNFα release; format: cell-based
Protocol: as §1, §2, §3, §4

[1] = Homo sapiens, 0.137174 nM, mean of donors
[2] = Homo sapiens, 0.411523 nM, mean of donors
[3] = Homo sapiens, 1.234568 nM, mean of donors
[4] = Homo sapiens, 3.703704 nM, mean of donors
[5] = Homo sapiens, 11.11111 nM, mean of donors
[6] = Homo sapiens, 33.33333 nM, mean of donors
[7] = Homo sapiens, 100 nM, mean of donors
[8] = Homo sapiens, 300 nM, mean of donors
[9] = ex vivo LPS-stimulated human whole blood, extent of inhibition, concentration not given

For `Cc1ncccc1NC(=O)c1ccc2c(c1)C(=O)C[C@@H]1C[C@@](O)(c3ccccc3)[C@](C)(O)C[C@@]21Cc1ccccc1` [Example 1, (4bR,6R,7R,8aS)-4b-benzyl-6,7-dihydroxy-6-methyl-N-(2-methylpyridin-3-yl)-10-oxo-7-phenyl-4b,5,6,7,8,8a,9,10-octahydrophenanthrene-2-carboxamide], the inhibition at 0.000137174 µM (IFNγ; [1]) was -3.93%, the inhibition at 0.000411523 µM (IFNγ; [2]) was 15.6% and the inhibition at 0.00123457 µM (IFNγ; [3]) was 18.4%. The inhibition at 0.0037037 µM (IFNγ; [4]) was 26.9%, the inhibition at 0.0111111 µM (IFNγ; [5]) was 51% and the inhibition at 0.0333333 µM (IFNγ; [6]) was 66.2%. The inhibition at 0.1 µM (IFNγ; [7]) was 72.5%, the inhibition at 0.3 µM (IFNγ; [8]) was 72.9% and the “level of inhibition of IFN” value (IFNγ; [9]) was 73%. The ED50 at 28 days (serum insulin; female, Swiss Webster, read-out: Insulin (ED50 dose)) was 1.28 mg/kg, the “Insulin (ED80 dose)” value (serum insulin) was 5.89 and the inhibition at 0.000137174 µM (TNFα; [1]) was 0.604%. It also gave an inhibition at 0.000411523 µM (TNFα; [2]) of -3.62%, an inhibition at 0.00123457 µM (TNFα; [3]) of 0.811% and an inhibition at 0.0037037 µM (TNFα; [4]) of 7.09%. For the same molecule, the inhibition at 0.0111111 µM (TNFα; [5]) was 18.1%, the inhibition at 0.0333333 µM (TNFα; [6]) was 30.7% and the inhibition at 0.1 µM (TNFα; [7]) was 42.2%. The inhibition at 0.3 µM (TNFα; [8]) was 42.8% and the “level of inhibition of TNF” value (TNFα; [9]) was 43%.
